Measured values taken from patent US20040138169A1, “Composition and use of substances for stabilising amino acids containing sulphur” (priority 2001, published 2004).
“Also recorded” adds a separate entry of the source.

Columns and labels:
[1] = system: sulphur-containing amino acids (HCY, CYS, CYSGLY, GLU) in whole blood; assay: Stabilization of sulphur-containing amino acids (HCY, CYS, CYSGLY, GLU) together in whole blood samples; assay type: cell-based; settings: substance used alone, samples at room temperature
Protocol: (§1) Material Used and Processes
(§2) The following inhibitors of methyl transferase or S-adenosylhomocysteine hydrolase have been tested
(§3) The effectiveness of the inhibitors have been tested in combination with the following acids:
(§4) The compositions of further reagents have been:
(§5) Mixture A: 5(4)-AMCA (5.2 mg) and DEOA (3.2 mg), dissolved in 500 μl phosphate buffer.
(§6) Composition of the buffer for mixture A:
(§7) All other substances have been dissolved in water.
(§8) Blood Withdrawal and Treatment of Samples
(§9) Corresponding amounts of stabilizers have been provided in EDTA- or Na-heparin-monovettes for each Example or Comparative Example (see Table 1). The blood withdrawal has been carried out in monovettes with and without stabilizers. For the control value, the monovettes have been centrifuged within 30 minutes after withdrawal.

[2] = system: HCY-concentration in whole blood; assay: Stabilization of the homocysteine (HCY) concentration in withdrawn whole blood stored in monovettes with stabilizer; assay type: cell-based; settings: room temperature; for HCY-SD (duration of stabilization): whole blood in EDTA- or Na-heparin-monovettes with stabilizer (amount per ml blood); for stabilization of homocysteine (duration): whole blood
Protocol: as §1, §2, §3, §4, §5, §6, §7, §8, §9

[3] = system: concentration of cysteine (CYS) in whole blood; assay: Stabilization of the cysteine (CYS) concentration in withdrawn whole blood stored in monovettes with stabilizer; assay type: cell-based; settings: whole blood in EDTA- or Na-heparin-monovettes with stabilizer (amount per ml blood), room temperature
Protocol: as §1, §2, §3, §4, §5, §6, §7, §8, §9

[4] = system: concentration of cysteinyl glycine (CYSGLY) in whole blood; assay: Stabilization of the cysteinyl glycine (CYSGLY) concentration in withdrawn whole blood stored in monovettes with stabilizer; assay type: cell-based
Protocol: as §1, §2, §3, §4, §5, §6, §7, §8, §9

[5] = system: concentration of glutathione (GLU) in whole blood; assay: Stabilization of the glutathione (GLU) concentration in withdrawn whole blood stored in monovettes with stabilizer; assay type: cell-based
Protocol: as §1, §2, §3, §4, §5, §6, §7, §8, §9

[6] = Storage stability of the reagent; assay type: physicochemical; settings: can be stored only in cooled state (+4° C.)
Protocol: A problem which occurs when using 3-deazaadenosine resides in that noticable variations of the measured values occur, lying in the range of up to 2 μmol/l in 60 hours with homocysteine and in the range of up to 60 μmol/l in 60 hours with cysteine. […] A further problem resides in that 3-deazaadenosine is not stable at room temperature and can be stored only in cooled state (+4° C.), which limits also its shipment capabilities. However, a simple handling of the reagents is of great importance in the diagnostic medicine, because for example withdrawn blood must be present in an unmodified form and transportable over an extended period without larger expenditure like, for example, cooling.

[7] = system: homocysteine level in blood; settings: cited from earlier work

SMILES	stabilization of the sulphur-containing amino acids (in words) [1]	HCY-SD (duration of stabilization) [2] [h]	CYS-SD (duration of stabilization) [3] [h]	other results
O=C(O)CN(CCN(CC(=O)O)CC(=O)O)CC(=O)O [Na-EDTA, ethylenediamine tetraacetic acid]	no stabilization			
O=C(O)/C=C/C(=O)O [Cmp.-Ex. 3, fumaric acid]		47	47	
Nc1ncnc2c1ncn2[C@H]1C[C@H](O)[C@@H](CO)O1 [2′-deoxyadenosin]	no significant stabilization			
Nc1nccc2c1ncn2[C@@H]1O[C@H](CO)[C@@H](O)[C@H]1O [Cmp.-Ex. 1, 3-deazaadenosin]		56	56	inhibition of the formation of cysteinyl glycine (in words) [4]: does not inhibit; inhibition of the formation of glutathione (in words) [5]: does not inhibit; stability of the reagent at room temperature (in words) [6]: not stable; increase of the homocysteine level ([7]; 72 hours after the blood withdrawal): about 10%; time over which the reaction from S-adenosylhomocysteine to homocysteine is effectively inhibited ([7]; blood samples): up to 72 hours; time without increase of the homocysteine level in blood ([7]; blood samples): up to 24 hours
[F-].[Na+] [NaF]				change of the homocysteine level in blood samples (in words) ([7]; in comparison with the initial value at the time of withdrawing the blood): no increase; also recorded: decrease
O=C1O[C@H]([C@@H](O)CO)C(O)=C1O [Cmp.-Ex. 2, ascorbic acid]		73	73	CYSGLY-SD (duration of stabilization) ([4]; whole blood in EDTA- or Na-heparin-monovettes with stabilizer (amount per ml blood), room temperature): 73 h
Nc1ncnc2c1ncn2[C@@H]1C=C(CO)[C@@H](O)[C@H]1O [Ex. 13, neplanocin A]		70		
NC(=O)c1nc[nH]c1N [5(4)-aminoimidazol-4(5)-carboxamid, 5(4)-aminoimidazol-4(5)-carboxamide]	no significant stabilization			
Nc1nccc2c1ncn2[C@@H]1C=C(CO)[C@@H](O)[C@H]1O [Ex. 14, 3-deazaneplanocin A]		143		stabilization of homocysteine (duration) [2]: at least 143 hours; stabilization of homocysteine (duration) ([2]; listed as 3DA-NeplA): 143 h
O=C(O)CC(O)(CC(=O)O)C(=O)O [citric acid]	no stabilization			
